Assay results: article PMC10223019, “Preclinical Evaluation of a PSMA-Targeting Homodimer with an Optimized Linker for Imaging of Prostate Cancer” (Molecules, 2023)
pKi: −log10 of the molar value. Values joined by “and” are separate entries in the source; they are usually repeats but may differ in a detail not shown here. Equal entries are not always repeated.

Experiments:
[1] = Stability in mouse serum, radio-HPLC; type: in vitro ADME; settings: 24 h post-incubation, 37 °C, indium-111 labeled, intact fraction
Procedure: [^111In]In-22 or [^111In]In-30 (~35 MBq, 70 µL) was mixed with 330 μL of mouse serum and incubated at 37 °C for up to 24 h. After 1, 4, and 24 h incubation, 50 μL of the mouse serum solution was added to a separate vial containing 50 µL of acetonitrile. The sample was centrifuged at 5000× g for 20 min. The supernatant was analyzed by radio-HPLC.

[2] = Stability in aqueous solution (LC-MS); type: physicochemical; settings: water, room temperature
Procedure: Dimerization was performed by elongation of 16 with 3-tritylthiopropionic acid, and reaction with 3,6-dichlorotetrazine following a biphasic protocol after cleavage from the solid support. Finally, addition of the chelator DOTA-TCO 26 was performed via the inverse electron-demand Diels–Alder reaction (IEDDA) to yield the dimeric product 27. However, it was noticed that 27 was not stable in aqueous solution, with degradation observed by LC-MS 20 min after incubation in water at room temperature. […] We hypothesized that it could originate from intramolecular interaction between the sulfur and the carboxylic acid group of the aspartic acid. Therefore, we modified the design of the dimer to include a longer spacer between 16 and the tetrazine. We replaced the 3-mercaptopropionic acid with a 6-mercaptohexanoic acid spacer. The resulting compound 30 (Scheme 2), obtained after dimerization and IEDDA reaction, was radiolabeled with In-111 and obtained in high RCY (>99%) and RCP (92.3%). It was stable in aqueous media and in the radiolabeling conditions, but also in PBS and mouse serum (>90% intact [^111In]In-30 at 24 h; Figure S7).

[3] = target: T1, Recombinant human PSMA (rhPSMA) (Homo sapiens, UniProt Q04609); experiment: NAALADase assay (competitive inhibition, Amplex Red glutamate readout); type: biochemical; settings: rhPSMA, substrate Ac-Asp-Glu, 1 h 37 °C
T1 construct: purchased R&D systems, Abingdon, UK
T1 sequence (Q04609 whole entry): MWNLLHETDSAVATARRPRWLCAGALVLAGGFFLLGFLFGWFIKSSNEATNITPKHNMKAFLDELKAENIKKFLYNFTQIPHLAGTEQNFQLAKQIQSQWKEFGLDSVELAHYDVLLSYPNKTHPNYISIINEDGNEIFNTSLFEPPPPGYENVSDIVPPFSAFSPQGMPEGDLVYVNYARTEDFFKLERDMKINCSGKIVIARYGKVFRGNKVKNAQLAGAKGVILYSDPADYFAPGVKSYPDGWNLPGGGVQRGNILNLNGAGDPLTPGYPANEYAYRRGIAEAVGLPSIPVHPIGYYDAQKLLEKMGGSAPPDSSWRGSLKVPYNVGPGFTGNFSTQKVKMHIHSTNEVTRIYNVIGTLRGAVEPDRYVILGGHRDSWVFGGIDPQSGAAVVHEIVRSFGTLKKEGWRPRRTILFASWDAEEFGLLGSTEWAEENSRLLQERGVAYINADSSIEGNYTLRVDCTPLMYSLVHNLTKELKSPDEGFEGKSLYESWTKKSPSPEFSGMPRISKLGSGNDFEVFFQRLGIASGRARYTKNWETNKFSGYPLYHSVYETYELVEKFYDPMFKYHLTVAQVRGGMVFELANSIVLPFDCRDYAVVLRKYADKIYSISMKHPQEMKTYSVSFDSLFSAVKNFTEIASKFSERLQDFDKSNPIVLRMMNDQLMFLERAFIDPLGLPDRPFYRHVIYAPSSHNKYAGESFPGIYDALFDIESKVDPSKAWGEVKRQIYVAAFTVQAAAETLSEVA
Procedure: Recombinant human PSMA (rhPSMA; R&D systems, Abingdon, UK) was diluted in assay buffer (50 mM HEPES, 0.1 M NaCl, pH 7.5) to 0.4 μg/mL. The substrate Ac–Asp–Glu (40 μM) was mixed with the synthesized derivatives and with a reference (PSMA-617) at concentrations ranging from 10^−6 to 10^−13 M in a final volume of 12.5 μL assay buffer. The mixtures were combined with 12.5 μL of the rhPSMA solution and incubated for 1 h at 37 °C in 384-well black polystyrene microplates (ThermoFisher, Bleiswijk, The Netherlands). The amount of glutamate released was measured by incubating with 25 μL of a working solution of the Amplex Red glutamic acid kit (ThermoFisher, Bleiswijk, The Netherlands) at 37 °C for 30 min. Fluorescence was measured with a HIDEX Sense Optical System (Goedereede, The Netherlands) with excitation at 535 nm and emission at 590 nm. Data were normalized and analyzed using a one-site total binding regression with GraphPad Prism v9.0 (GraphPad Software, San Diego, CA, USA).

[4] = Stability in phosphate-buffered saline (PBS), radio-HPLC; type: physicochemical; settings: 24 h post-incubation, 37 °C, indium-111 labeled, intact fraction
Procedure: [^111In]In-22 or [^111In]In-30 (~10 MBq, 20 µL) was mixed with 80 μL of PBS (0.01 M, pH 7.4) and incubated at 37 °C for up to 24 h. A sample of the PBS solution was loaded directly onto the radio-HPLC at 1, 4, and 24 h post-incubation.

PSMA = target: PSMA; design: method as in PMID 30097503; settings: cited from earlier work

In the case of `CC(C)CC(NC(=O)C(Cc1ccccc1)NC(=O)C(CC(=O)O)NC(=O)CCCCCSC1=NNC(SCCCCCC(=O)NC(CC(=O)O)C(=O)NC(Cc2ccccc2)C(=O)NC(CC(C)C)C(O)CC(=O)NCCCCCC(=O)NCCCCC(NC(=O)NC(CCC(=O)O)C(=O)O)C(=O)O)=C2CCC(OC(=O)NCCCNC(=O)CN3CCN(CC(=O)O)CCN(CC(=O)O)CCN(CC(=O)O)CC3)CCCC12)C(O)CC(=O)NCCCCCC(=O)NCCCCC(NC(=O)NC(CCC(=O)O)C(=O)O)C(=O)O` [Compound 30, [EuK(Ahx-Sta-L-Phe-Asp-SHx)]2-Tz-TCO-DOTA], the “Stability in Mouse Serum (%)” value [1] was greater than 90%, the “Stability in aqueous solution” value [2] was “stable” and the IC50 [3] was 1.05 nM and 1 to 1.6 nM. For the same compound, the “Stability in PBS (%)” value [4] was greater than 90%.

In the case of `N[C@@H](CCC(=O)O)C(=O)[O-].[Na+]` [Monosodium glutamate], the pKi (PSMA) is given as 6.05.
